Measurements as given in PubChem BioAssay (NCI).
Values joined by “and” are separate entries in the source; they are usually repeats but may differ in a detail not shown here. Equal entries are not always repeated.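 All cell lines were grown in 96-well plates and treated with compound for 48 hours. Abbreviation: GI50, concentration required for 50% inhibition of growth. The concentration for full growth arrest is given as TGI.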

Assays:
Assay in all cases: NCI tumour cell line growth inhibition, 48 h
TK-10 renal = test system: TK-10 renal
BT-549 breast = test system: BT-549 breast
NCI-H23 lung = test system: NCI-H23 lung
SK-MEL-5 melanoma = test system: SK-MEL-5 melanoma
SK-OV-3 ovarian = test system: SK-OV-3 ovarian
SW-620 colon = test system: SW-620 colon
RPMI-8226 leukemia = test system: RPMI-8226 leukemia
U251 CNS = test system: U251 CNS

SMILES	GI50 (TK-10 renal)	TGI (TK-10 renal)	GI50 (BT-549 breast)	TGI (BT-549 breast)	GI50 (NCI-H23 lung)	TGI (NCI-H23 lung)	GI50 (SK-MEL-5 melanoma)	TGI (SK-MEL-5 melanoma)	TGI (SK-OV-3 ovarian)	GI50 (SW-620 colon)	TGI (SW-620 colon)	GI50 (RPMI-8226 leukemia)	TGI (RPMI-8226 leukemia)	GI50 (U251 CNS)	TGI (U251 CNS)	GI50 (SK-OV-3 ovarian)
C/C1=C\CC[C@@]2(C)O[C@@H]2C[C@@H]2[C@H](C/C(C)=C/CC1)OC(=O)C21CCN=N1 (stereo not given in full)	> 100 µM	> 100 µM	> 100 µM	> 100 µM	> 100 µM	> 100 µM	> 100 µM	75 µM and > 100 µM	> 75 µM	> 100 µM	> 100 µM	> 100 µM	75 µM and > 100 µM	> 100 µM	> 100 µM	
Cn1ccnc1C(=O)/C=C/c1ccc(C(=O)Nc2ccccc2O)cc1	3.2 µM	12.7 µM	1.8 µM	5.05 µM	2.91 µM	9.67 µM	3.36 µM	11.1 µM	14.5 µM	1.62 µM	4.12 µM	0.62 µM	3.8 µM	1.46 µM	4.03 µM	4.13 µM
COc1cc(C2CC(c3ccc(Nc4ccnc5cc(Cl)ccc45)cc3)=NN2C=O)cc(OC)c1OC (stereo not given)	3.09 µM	9.4 µM	1.92 µM	3.97 µM	20.4 µM	> 100 µM	1.98 µM	6.28 µM	10.9 µM	3.49 µM	17.7 µM	2.56 µM	8.63 µM	2.06 µM	4.76 µM	3.36 µM
O=C(Nc1cccc([N+](=O)[O-])c1)c1ccc2ccccc2c1O	4.59 µM	> 47.4 µM	1.75 µM	5.53 µM	3.79 µM	> 89.8 µM	1.75 µM	6.41 µM	> 59.9 µM	6.8 µM	> 100 µM	1.28 µM	5.99 µM	4.36 µM	> 86.8 µM	7.05 µM
CO/N=C(\COc1ccc2c(c1)oc(=O)c1cc(OC)ccc12)c1cccc(OC)c1	> 100 µM	> 100 µM	> 100 µM	> 100 µM	> 100 µM	> 100 µM	> 100 µM	> 100 µM	> 100 µM	> 100 µM	> 100 µM	> 100 µM	> 100 µM	> 100 µM	> 100 µM	> 100 µM
Cc1cc(NCCCCNc2ccnc3cc(Cl)ccc23)nc(Nc2ccc(C(=O)N3CCCC3)cc2)n1	1.84 µM	4.25 µM	1.83 µM	4.38 µM	3.7 µM	15.8 µM	1.7 µM	3.13 µM	9.11 µM	1.7 µM	3.5 µM	1.34 µM	5.3 µM	2.08 µM	4.8 µM	3.49 µM
Oc1ccc2ccccc2c1C(c1ccc(Cl)cc1)c1c(O)ccc2ccccc12		11.1 µM		14.1 µM		19.1 µM		6.93 µM	19.9 µM		18.4 µM		5.21 µM		12.9 µM	
CC(C)=CCc1ccc(O)c(=O)cc1C(C)C	0.746 µM	> 100 µM	1.05 µM	36.4 µM	0.701 µM	> 51.3 µM	0.582 µM	4.08 µM	> 100 µM	0.566 µM	> 100 µM	0.673 µM	> 91.3 µM	0.472 µM	> 100 µM	0.903 µM
O=C(CC(O)c1ccncc1)c1ccccc1 (stereo not given)	41.8 µM	> 100 µM	22.4 µM	88.4 µM	42.8 µM	> 100 µM	16.1 µM	30.8 µM	93.3 µM	32.2 µM	> 100 µM	17.9 µM	62.6 µM	28.6 µM	> 100 µM	25.4 µM
COc1cc(C(=O)N2CCN(c3ccccc3OC)CC2)c(N)cc1OCc1ccccc1	31.9 µM	73.2 µM	27.6 µM	66.8 µM	48.4 µM	> 100 µM	16.5 µM	31.4 µM	> 100 µM	41.1 µM	> 100 µM	21.1 µM	49.2 µM	41.8 µM	> 100 µM	49.9 µM
CCCC(=O)Nc1cc([N+](=O)[O-])c([N+](=O)[O-])cc1OC		31 µM		31 µM		34.4 µM		30.2 µM	26.8 µM		89.9 µM		68.4 µM		29.8 µM	
NC(N)=N/N=C(/c1ccccc1)c1ccc(Cl)cc1	32 µM	> 100 µM	50.5 µM	> 100 µM	34 µM	> 100 µM	5.97 µM	44.9 µM	> 100 µM	3.93 µM	> 100 µM	1.53 µM	26.6 µM	9.4 µM	> 100 µM	39.7 µM
c1ccc2c(Nc3ccc(Oc4ccc(Nc5c6ccccc6nc6ccccc56)cc4)cc3)c3ccccc3nc2c1		0.97 µM	2.07 µM and 1.87 µM	4.54 µM and 4.4 µM		0.596 µM		3.4 µM	4.21 µM		0.552 µM	0.187 µM	0.434 µM	0.0212 µM and 0.145 µM	0.0762 µM and 0.276 µM	
Cn1c(=O)c2[nH]c(C3CC(=O)CC(c4nc5c([nH]4)c(=O)n(C)c(=O)n5C)N3)nc2n(C)c1=O (stereo not given)		> 100 µM		> 100 µM		> 100 µM		> 100 µM	> 100 µM		> 100 µM		> 100 µM		> 100 µM	
CC1(C)N=C(N)N=C(N)N1c1ccc(OCC(=O)N2CCOCC2)c(Cl)c1	> 100 µM	> 100 µM	14.8 µM	> 100 µM	1.5 µM	> 100 µM	1.36 µM	> 100 µM	> 100 µM	0.714 µM	> 100 µM	9.04 µM	> 100 µM	1.16 µM	> 100 µM	69.8 µM
COc1cc2c(cc1OCCCCCn1c(-c3ccco3)nc3ccccc31)N=C[C@@H]1CCCN1C2=O	0.0267 µM	35.6 µM	< 0.01 µM	< 0.0209 µM	< 0.01 µM	< 0.01 µM	< 0.01 µM	< 0.01 µM		< 0.01 µM	10.1 µM	< 0.01 µM	< 0.0309 µM	< 0.01 µM	11.2 µM	< 0.01 µM
